From US20060252774A1, “Regulation of type 5 adenylyl cyclase for treatment of neurodegenerative and cardiac diseases” (priority 2002, published 2006)
Entries after “also recorded” stand apart in the source; their conditions may differ.

Key:
H9C2 cells = assay: cAMP accumulation in H9C2 cells; format: cell-based; settings: 10 micro M forskolin and isoproterenol; compound 10 micro M
Experimental: FIG. 10: Effect of NKY80 and HI30435 on cAMP accumulation in H9C2 cells.[:] H9C2 cells were incubated in the presence of 10 micro M forskolin and isoproterenol and NKY80 or HI30435 (10 micro M), followed by cAMP accumulation assays (n=4-5, p<0.01).
(§1) Inventors will first determine the selectivity among the AC isoforms (FIG. 12). […] The IC50 values were calculated to be 0.32 micro M for AC5, 11.1 micro M for AC3, 65.3 micro M for AC2. The selectivity ratio of HI30435 was 207 between AC5 and AC2. […] The selectivity ratio was 18 between AC5 and AC2.

AC3 [1] = target: T1, AC3 (Rattus norvegicus, UniProt P21932); assay: AC catalytic activity inhibition, AC3 isoform; format: biochemical; settings: for IC50: 5 mM MgCl2 with Gsalpha/GTPgammaS/forskolin (50 micro M)
T1 sequence (P21932 1-1144): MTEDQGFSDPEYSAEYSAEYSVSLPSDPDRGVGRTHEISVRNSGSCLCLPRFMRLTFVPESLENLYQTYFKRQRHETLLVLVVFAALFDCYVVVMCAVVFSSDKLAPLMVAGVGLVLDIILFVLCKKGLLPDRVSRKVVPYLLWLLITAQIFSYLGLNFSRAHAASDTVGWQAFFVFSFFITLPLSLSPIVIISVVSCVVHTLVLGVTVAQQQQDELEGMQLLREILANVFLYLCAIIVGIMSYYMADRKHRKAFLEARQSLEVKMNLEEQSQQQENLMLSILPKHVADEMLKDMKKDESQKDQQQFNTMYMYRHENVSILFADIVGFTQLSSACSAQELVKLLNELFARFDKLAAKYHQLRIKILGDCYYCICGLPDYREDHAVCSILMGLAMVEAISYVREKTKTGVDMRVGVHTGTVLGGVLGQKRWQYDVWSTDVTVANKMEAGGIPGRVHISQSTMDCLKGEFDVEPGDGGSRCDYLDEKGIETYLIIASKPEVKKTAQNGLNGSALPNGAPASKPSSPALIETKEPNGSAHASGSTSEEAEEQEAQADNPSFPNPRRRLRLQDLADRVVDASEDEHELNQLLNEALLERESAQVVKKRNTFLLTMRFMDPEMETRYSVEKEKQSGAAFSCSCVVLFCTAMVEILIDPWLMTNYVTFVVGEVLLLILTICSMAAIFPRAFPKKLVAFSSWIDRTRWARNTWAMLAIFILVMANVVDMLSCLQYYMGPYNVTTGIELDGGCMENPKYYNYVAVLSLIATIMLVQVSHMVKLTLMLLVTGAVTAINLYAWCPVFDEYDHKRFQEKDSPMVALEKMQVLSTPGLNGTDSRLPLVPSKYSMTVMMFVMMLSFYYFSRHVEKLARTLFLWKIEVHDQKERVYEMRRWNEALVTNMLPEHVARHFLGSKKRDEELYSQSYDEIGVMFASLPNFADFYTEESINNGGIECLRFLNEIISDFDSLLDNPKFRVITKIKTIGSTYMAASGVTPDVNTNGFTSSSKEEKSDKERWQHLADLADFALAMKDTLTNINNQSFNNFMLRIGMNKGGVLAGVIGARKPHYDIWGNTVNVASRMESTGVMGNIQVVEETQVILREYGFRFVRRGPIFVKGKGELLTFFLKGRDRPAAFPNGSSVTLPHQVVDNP
Text: (§2) Classic inhibitors of AC include adenosine analogs or P-site inhibitors, and MDL12330A, a non-nucleic acid inhibitor.
(§3) Inventors will first determine the selectivity among the AC isoforms (FIG. 12).

AC5 [2] = assay: AC catalytic activity inhibition, AC5 isoform; format: biochemical; settings: for selectivity ratio between AC5 and AC2: inhibition of AC catalytic activity
Text: (§4) FIG. 11. […] The relative inhibitory activity versus control (% control activity) for various AC isoforms are shown. Data are means±S.D. of quadruplicate determinations.
(§5) Classic inhibitors of AC include adenosine analogs or P-site inhibitors, and MDL12330A, a non-nucleic acid inhibitor. However, not much was known about the isoform selectivity of these inhibitors. […] It was previously noted that AC2 was less sensitive to THFA than the other isoforms, giving a selectivity ratio of 1.8 when compared between AC6 and AC2.
as §1

AC5 [3] = target: T2, AC5 (Canis lupus familiaris, UniProt P30803); assay: AC catalytic activity inhibition, AC5 isoform; format: biochemical; set-up: IC50 for AC5; other: 5 mM MgCl2 with Gsalpha/GTPgammaS/forskolin (50 micro M); other: in the presence of Gsalpha/GTPgammaS/forskolin; other: 10 micro M; settings: for IC50: 5 mM MgCl2 with Gsalpha/GTPgammaS/forskolin (50 micro M)
T2 sequence (P30803 whole entry, canonical isoform): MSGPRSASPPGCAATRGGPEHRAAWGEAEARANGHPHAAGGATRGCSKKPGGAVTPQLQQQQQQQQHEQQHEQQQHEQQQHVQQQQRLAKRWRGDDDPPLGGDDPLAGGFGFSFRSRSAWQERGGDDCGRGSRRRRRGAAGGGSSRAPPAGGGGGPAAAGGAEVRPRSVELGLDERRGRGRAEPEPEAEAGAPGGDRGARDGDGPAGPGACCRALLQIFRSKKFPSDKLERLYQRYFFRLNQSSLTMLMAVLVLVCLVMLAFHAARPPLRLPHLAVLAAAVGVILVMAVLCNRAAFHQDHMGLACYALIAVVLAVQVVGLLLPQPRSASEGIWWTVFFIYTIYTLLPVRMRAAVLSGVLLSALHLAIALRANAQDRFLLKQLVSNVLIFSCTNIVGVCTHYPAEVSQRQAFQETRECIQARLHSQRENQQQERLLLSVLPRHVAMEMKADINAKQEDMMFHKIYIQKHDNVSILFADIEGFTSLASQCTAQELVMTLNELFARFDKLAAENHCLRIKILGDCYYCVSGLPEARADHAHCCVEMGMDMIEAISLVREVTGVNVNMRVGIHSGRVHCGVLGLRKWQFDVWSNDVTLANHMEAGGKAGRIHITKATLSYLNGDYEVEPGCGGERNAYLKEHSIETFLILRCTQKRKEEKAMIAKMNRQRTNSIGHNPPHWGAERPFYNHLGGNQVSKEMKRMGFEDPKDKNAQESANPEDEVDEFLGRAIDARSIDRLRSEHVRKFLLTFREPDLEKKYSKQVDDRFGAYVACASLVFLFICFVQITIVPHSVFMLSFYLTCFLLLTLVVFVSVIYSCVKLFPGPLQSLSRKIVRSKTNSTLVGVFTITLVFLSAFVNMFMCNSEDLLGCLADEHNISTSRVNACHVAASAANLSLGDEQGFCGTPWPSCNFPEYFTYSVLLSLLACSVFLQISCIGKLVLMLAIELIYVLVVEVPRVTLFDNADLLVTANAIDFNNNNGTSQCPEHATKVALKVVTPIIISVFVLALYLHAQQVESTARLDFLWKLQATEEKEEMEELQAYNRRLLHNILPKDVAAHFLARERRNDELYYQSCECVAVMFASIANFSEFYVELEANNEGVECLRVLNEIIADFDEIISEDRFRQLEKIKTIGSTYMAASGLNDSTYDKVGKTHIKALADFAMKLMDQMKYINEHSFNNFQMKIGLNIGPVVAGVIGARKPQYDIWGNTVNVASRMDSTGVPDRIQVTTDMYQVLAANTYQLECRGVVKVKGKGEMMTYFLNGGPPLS
Text: as §4, §5, §1

AC2 [4] = target: T3, AC2 (Rattus norvegicus, UniProt P26769); assay: AC catalytic activity inhibition, AC2 isoform; format: biochemical
T3 sequence (P26769 whole entry, canonical isoform): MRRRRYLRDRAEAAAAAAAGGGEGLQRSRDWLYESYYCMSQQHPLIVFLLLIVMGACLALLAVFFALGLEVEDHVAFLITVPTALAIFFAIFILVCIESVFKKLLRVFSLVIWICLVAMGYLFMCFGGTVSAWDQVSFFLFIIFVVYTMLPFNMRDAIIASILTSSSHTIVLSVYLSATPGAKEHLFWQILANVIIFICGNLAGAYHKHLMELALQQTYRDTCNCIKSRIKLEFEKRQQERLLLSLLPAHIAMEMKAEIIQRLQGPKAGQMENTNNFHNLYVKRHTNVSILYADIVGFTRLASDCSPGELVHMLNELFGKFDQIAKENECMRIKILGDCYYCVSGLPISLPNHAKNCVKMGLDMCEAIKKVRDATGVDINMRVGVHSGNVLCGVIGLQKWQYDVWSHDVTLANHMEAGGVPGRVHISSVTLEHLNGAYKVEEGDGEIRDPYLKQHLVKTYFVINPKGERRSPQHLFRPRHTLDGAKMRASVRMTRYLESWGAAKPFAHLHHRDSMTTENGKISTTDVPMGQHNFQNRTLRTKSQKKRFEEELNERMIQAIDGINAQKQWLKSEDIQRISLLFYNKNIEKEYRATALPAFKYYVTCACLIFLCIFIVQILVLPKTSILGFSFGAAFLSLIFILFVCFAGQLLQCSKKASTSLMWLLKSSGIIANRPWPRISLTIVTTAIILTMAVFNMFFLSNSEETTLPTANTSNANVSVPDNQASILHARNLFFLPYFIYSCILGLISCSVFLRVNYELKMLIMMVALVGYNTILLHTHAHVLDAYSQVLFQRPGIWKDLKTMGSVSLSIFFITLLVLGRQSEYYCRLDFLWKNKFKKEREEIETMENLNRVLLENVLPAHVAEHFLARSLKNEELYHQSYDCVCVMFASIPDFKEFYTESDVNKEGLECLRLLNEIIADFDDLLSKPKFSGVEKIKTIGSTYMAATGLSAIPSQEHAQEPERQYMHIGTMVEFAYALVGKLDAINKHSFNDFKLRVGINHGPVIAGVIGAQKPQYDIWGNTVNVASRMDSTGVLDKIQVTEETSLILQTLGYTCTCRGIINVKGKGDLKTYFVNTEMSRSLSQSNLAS
Text: as §2, §3

AC3 [5] = target: T1, AC3; assay: Adenyl cyclase stimulation by forskolin derivatives, High five cell membranes overexpressing type III; format: biochemical; settings: 5 mM MgCl2
Experimental: (§6) FIG. 15: Effect of forskolin, 6[3-(dimethylamino)propionyl]-14,15-dihydroforskolin, and NKH477 on adenyl cyclase [isforms.] isoforms: Forskolin derivatives dose response effect (A-C). High five cell membranes overexpressing type II (A), type III (B), and type V (C) adenyl cyclases. Adenyl cyclase activity was measured in the presence of 5 mM of MgCl2 with various concentrations of forskolin (closed circles), 6[3-(dimethylamino)propionyl]-14,15-dihydroforskolin (D, open triangles) or NKH477 (open circles). Means±SEM from 4 independent experiments are shown. *, p<0.01 differences from the value with forskolin.

AC5 [6] = target: T2, AC5; assay: Adenyl cyclase stimulation by forskolin derivatives, High five cell membranes overexpressing type V; format: biochemical; set-up: made in house; host or cells: High Five insect cells (membranes)
Experimental: as §6

AC2 [7] = target: T3, AC2; assay: Adenyl cyclase stimulation by forskolin derivatives, High five cell membranes overexpressing type II; format: biochemical; set-up: made in house; host or cells: High Five insect cells (membranes); settings: 5 mM MgCl2
Experimental: as §6

AC6 = AC6 (Homo sapiens, UniProt O43306); settings: previously noted; cited from earlier work
Sequence of AC6 (O43306 whole entry): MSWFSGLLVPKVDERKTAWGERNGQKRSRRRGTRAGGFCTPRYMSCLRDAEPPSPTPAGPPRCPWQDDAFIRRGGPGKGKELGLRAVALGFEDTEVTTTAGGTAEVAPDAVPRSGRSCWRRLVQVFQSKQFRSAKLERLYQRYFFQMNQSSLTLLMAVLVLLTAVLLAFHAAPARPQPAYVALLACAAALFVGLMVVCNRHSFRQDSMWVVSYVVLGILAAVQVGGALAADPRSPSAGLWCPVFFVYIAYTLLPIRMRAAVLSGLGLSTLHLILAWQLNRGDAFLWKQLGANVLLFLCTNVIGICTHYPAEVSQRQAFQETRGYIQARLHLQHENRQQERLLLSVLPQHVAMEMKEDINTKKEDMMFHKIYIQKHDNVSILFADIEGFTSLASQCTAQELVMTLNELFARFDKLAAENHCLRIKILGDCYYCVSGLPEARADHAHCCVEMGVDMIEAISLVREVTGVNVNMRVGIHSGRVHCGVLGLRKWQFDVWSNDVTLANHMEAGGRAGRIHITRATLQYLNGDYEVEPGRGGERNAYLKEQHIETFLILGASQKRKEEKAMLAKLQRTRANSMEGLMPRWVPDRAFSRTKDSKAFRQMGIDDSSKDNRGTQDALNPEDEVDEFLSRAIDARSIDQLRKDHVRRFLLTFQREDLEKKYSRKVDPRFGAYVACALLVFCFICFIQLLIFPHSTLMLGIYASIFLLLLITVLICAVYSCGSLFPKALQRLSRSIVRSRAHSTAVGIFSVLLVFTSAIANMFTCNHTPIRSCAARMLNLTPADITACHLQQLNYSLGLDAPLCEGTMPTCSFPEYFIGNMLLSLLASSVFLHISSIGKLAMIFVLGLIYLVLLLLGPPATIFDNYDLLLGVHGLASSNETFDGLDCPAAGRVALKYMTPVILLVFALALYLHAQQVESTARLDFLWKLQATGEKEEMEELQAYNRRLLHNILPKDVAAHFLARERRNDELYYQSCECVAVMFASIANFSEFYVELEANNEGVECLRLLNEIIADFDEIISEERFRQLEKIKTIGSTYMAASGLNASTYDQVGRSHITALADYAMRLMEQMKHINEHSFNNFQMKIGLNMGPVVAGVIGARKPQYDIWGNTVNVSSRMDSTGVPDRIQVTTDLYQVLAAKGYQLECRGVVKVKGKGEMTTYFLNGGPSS

WT and AC5KO mice [8] = assay: Pole test with dopaminergic agonists; format: in vivo, mouse; settings: subcutaneous
Experimental: (§7) FIG. 27. Motor dysfunction in ACD-^−/− mice. Rotarod test (A)—Each mouse was placed on a 3.5-cm diameter rod covered with rubber to evaluate rotarod performance (14). Mice were left for 1 minute on the rod for habituation. The rod rotated gradually increasing from 4 to 40 rpm over the course of 5 min and the time that mice could stay on an accelerating rotarod without failing was recorded. Five trials were conducted for each individual 10-25 min apart within the dark phase of the light/dark cycle. Mice that stayed on the rotarod for >300 sec were considered complete responders, and their latencies were recorded as 300 sec. *p<0.05, relative to ^+/+; ^+/−, n=17-20. Activity tests (B and C)—The tests were performed as previously described (14, 15). Mice were put in the darkened testing room 60 minutes for habituation before testing. Locomotor activity (B) was assessed using an activity monitor equipped with photocell beams (Columbus Instruments, Ohio, USA). The number of photobeam interruptions in each perpendicular axis was recorded and totaled for 5 min. The behavior of the mice was recorded simultaneously by video camera for later analysis, and their rearing actions were counted (C). *p<0.05, relative to ^+/+, n=15-20. Pole test (D)—In order to evaluate bradykinesia, pole test was performed (16). In brief, mice were placed head upward on the top of a rough-surfaced pole (8 mm in diameter and 50 cm in height) that was wrapped with gauze to prevent slipping. The time until it turned completely downward (open bars, Tturn) and the time until it climbed down to the floor (closed bars, TLA) were measured *p<0.01, relative to ^+/+, n=14-17. Means±SEM are shown. Homozygous to (ACD^−/−) (closed circles, ^−/−), heterozygous (shaded circles, ^+/−), and wild type (WT) (open circles, ^+/+).
(§8) FIG. 32. Effect of dopaminergic agonists on motor functions Effects of SKF38393 on locomotor activity (A), rotarod test (B), and pole test (C) were compared. […] In rotarod test, the best performance out of five trials in each individual was evaluated. […]

striatal AC = assay: D1 or D2 receptor agonist-stimulated AC activity in striatal membrane preparations; format: biochemical, mouse; settings: WT striatal membranes; 1 μM
Experimental: AC catalytic activity was compared as previously described (15) using the membrane preparations from the striatum, cortex and cerebellum A). AC assays were conducted in the presence of 50 μM forskolin. […] D1 or D2 receptor agonist-stimulated AC activity was also examined (C). […] Each AC catalytic activity was compared to that in the presence of 10 μM GTP alone. Open bars, WT (^+/+); closed bars, AC5KO (^−/−). Means±SEM are shown. *p<0.05, **p<0.01, relative to ^+/+, n=4.
Striatal tissues were dissected from mice and membrane preparations were prepared for AC assays as previously described (10, 11).
We also examined receptor agonist-stimulated AC activity (FIG. 3C).

WT and AC5KO mice [9] = assay: Locomotor activity test with dopaminergic agonists; format: in vivo, mouse; settings: subcutaneous, SKF38393 25 or 50 mg/kg, cabergoline 0.2 or 1.0 mg/kg
Experimental: as §7, with “Activity tests (B and C)—The tests were performed as previously described (14, 15). Mice were put in the darkened testing room 60 minutes for habituation before testing.” left out, “Pole test (D)—In order to evaluate bradykinesia, pole test was performed (16). In brief, mice were placed head upward on the top of a rough-surfaced pole (8 mm in diameter and 50 cm in height) that was wrapped with gauze to prevent slipping.” left out, “Means±SEM are shown. Homozygous to (ACD^−/−) (closed circles, ^−/−), heterozygous (shaded circles, ^+/−), and wild type (WT) (open circles, ^+/+).” left out
FIG. 32. […] In rotarod test, the best performance out of five trials in each individual was evaluated. […]

WT and AC5KO mice [10] = assay: Rotarod test with dopaminergic agonists; format: in vivo, mouse; settings: WT and AC5KO; subcutaneous; 25 or 50 mg/kg
Experimental: as §7, §8

AC5 [11] = target: T2, AC5; set-up: made in house; host or cells: High Five insect cells (membranes); settings: previously reported; potency on AC2 and AC3 remained similar; cited from earlier work
[12] = in the presence of Gsalpha/GTPgammaS/forskolin

SMILES: Nc1ncc2c(n1)CC(c1ccco1)CC2=O (centres unmarked) [NKY80, 2-amino-7-(2-furanyl)-7,8-dihydro-5(6H)-quinazolinone]
- cAMP accumulation in H9C2 cells (H9C2 cells): but not NKY80, inhibited cAMP accumulation; also recorded: did not
- IC50 (AC3 [1]): 132 µM
- mode of inhibition (AC5 [2]; Lineweaver-Burk plot analysis): not competitive with respect to ATP or forskolin
- selectivity ratio between AC5 and AC2 (AC5 [2]): 210
- IC50 (AC5 [3]): 8.3 µM
- IC50 (AC2 [4]; Gsalpha/GTPgammaS/forskolin): 1700 µM

SMILES: CCC1(C)CC(=O)C2(O)C(C)(O1)C(OC(C)=O)C(OC(=O)CCN(C)C)C1C(C)(C)CCC(O)C12C (centres unmarked) [6-3(dimethylaminopropionyl]-14,15-dihydroforskolin]
- relative potency of stimulation versus forskolin, AC3 (AC3 [5]): 31%
- relative potency of stimulation versus forskolin, AC5 (AC5 [6]; 5 mM MgCl2): 139%
- AC5 selectivity of stimulation (in words) (AC5 [6]; forskolin derivatives): further enhancement in selectivity for AC5
- relative potency of stimulation versus forskolin, AC2 (AC2 [7]): 66%

SMILES: Nc1ncnc2c1ncn2C1CCCO1 (centres unmarked) [THFA, 9-(tetrahydro-2-furyl)adenine]
- IC50 (AC3 [1]): 101 µM
- inhibition of AC3 (in words) (AC3 [1]; [12]): only to a modest degree
- selectivity ratio between AC6 and AC2 (AC6): 1.8
- selectivity ratio between AC5 and AC2 (AC5 [2]): 130
- IC50 (AC5 [3]): 2.2 µM
- inhibition of AC5 (in words) (AC5 [3]; [12]): potently inhibited AC5
- IC50 (AC2 [4]; 5 mM MgCl2 with Gsalpha/GTPgammaS/forskolin (50 micro M)): 285 µM
- inhibition of AC2 (in words) (AC2 [4]; [12]): only to a modest degree

SMILES: Oc1cc2c(cc1O)C(c1ccccc1)CNCC2 (centres unmarked) [SKF38393]
- pole test performance (WT and AC5KO mice [8]): improved pole test performance
- stimulation of AC activity, increase over that with 10 μM GTP (striatal AC): 40.7±2.6%
- locomotor activity (WT and AC5KO mice [9]): increased locomotor activity in both WT and AC5KO
- rotarod performance (WT and AC5KO mice [10]): did not improve rotarod performance in both WT and AC5KO

SMILES: C=C[C@@]1(C)CC(=O)[C@]2(O)[C@@]3(C)[C@@H](O)CCC(C)(C)[C@@H]3[C@H](OC(=O)CCN(C)C)[C@H](OC(C)=O)[C@@]2(C)O1 [NKH477]
- stimulation of AC5 (in words) (AC5 [11]): enhanced stimulation of AC5
